# Measured values as given in patent US4888283A, “Selective inhibitors of benzylaminoxidases with respect to other aminoxidases” (priority 1985, dated 1989).
# Where a name gives a salt, the structure may show the parent alone.
# What was measured:
# [1] = tested on: Pure BAO obtained from swine plasma; test: Inhibition type on BAO (Lineweaver-Burk); format: biochemical; design: key: competitive inhibition; nc: not competitive inhibition; mixed inhibition; conditions: 1/v vs. 1/s, 5 substrate concentrations
# Text: (§1) Pure BAO obtained from swine plasma by the procedure disclosed by F. Buffoni and H. Blaschko (Proc. Roy. Soc. B 161, 153 (1964)); DAO from swine kidney, as obtained and purified by the Sigma (St. Louis, Md., USA, 0.25 U/mg); purified LAO from swine aorta obtained by the procedure disclosed by F. Buffoni and L. Raimondi (Agents and Actions, 11, 38 (1981)). Rat liver mitochondria obtained by the procedure disclosed by G. W. Schneider and G. H. Hogeboon (J. Biol. Chem., 183, 123 (1950)) were employed as the source of MAO.
# The inhibition type was evaluated by studying the effect of the compound on the enzymic rate (v) at 5 different concentrations of the substrate (s) and plotting the results by the classical procedure as 1/v vs. 1/s according to Lineweaver-Burk.
# [2] = tested on: Pure BAO obtained from swine plasma; test: Reversibility of BAO inhibition by dialysis; format: biochemical; design: key: reversible inhibition; irreversible inhibition; pr: partially reversible inhibition; conditions: dialysis of the solution
# Text: as §1
# The reversibility of the effect was evaluated showing that the inhibition caused by a certain concentration of the inhibitor (for instance the IC50 value) would be reverted by dialysis of the solution.
# [3] = tested on: MAO (rat liver mitochondria); test: Compound as the substrate of MAO (production of H2O2); format: biochemical; design: key: the compound is the substrate; ns: the compound is not the substrate; conditions: 37° C., air
# Description: (§2) The oxidation of the compound is estimated in all cases by measuring the production of H2 O2. Such operation is carried out within a temperature-controlled bath set at 37° C. and stirred, in the presence of air. The production-of H2 O2 is quantitatively determined by the method of H. P. Lehman, K. H. Schosinsky, M. F. Beeler (Clin. Chem., 20, 1564 (1974)).
# as §1
# [4] = tested on: MAO (rat liver mitochondria); test: Inhibition of monoaminoxidases (MAO), isotopic procedure with 14C-beta-phenylethylamine; format: biochemical; conditions: 30 minutes pre-incubation; 14C-beta-phenylethylamine 1.7 mM; mean ± s.e.
# Description: The quantitative determination of monoaminoxidases (MAO's) is carried out by the same procedure as the determination of BAO's, but ^14 C-beta-phenylethylamine is employed at the final concentration of 1.7 mM.
# as §1
# (§3) IC50 (M)=The molar concentration of the inhibitor that inhibits 50% of the enzyme activity at a saturating concentration of the substrate. Said concentration is calculated from curves obtained by pre-incubation of the compound for 30 minutes (at 6 different concentrations) with the enzyme before adding the substrate and determining the enzymic rate.
# (§4) The repetition of the experiments allows to obtain the average values of the IC50 (M) as well as the relative standard errors.
# [5] = tested on: Pure BAO obtained from swine plasma; test: Compound as the substrate of BAO (production of H2O2); format: biochemical; design: key: the compound is the substrate; ns: the compound is not the substrate; conditions: 37° C., air
# Description: as §2, §1
# DAO from swine kidney [6] = target: T1, DAO from swine kidney (Sus scrofa, UniProt Q9TRC7); test: Compound as the substrate of DAO (production of H2O2); format: biochemical; design: key: the compound is the substrate; ns: the compound is not the substrate; conditions: 37° C., air
# T1 construct: DAO from swine kidney, as obtained and purified by the Sigma; purchased Sigma (St. Louis); host or cells: swine kidney
# T1 sequence (Q9TRC7 25-755): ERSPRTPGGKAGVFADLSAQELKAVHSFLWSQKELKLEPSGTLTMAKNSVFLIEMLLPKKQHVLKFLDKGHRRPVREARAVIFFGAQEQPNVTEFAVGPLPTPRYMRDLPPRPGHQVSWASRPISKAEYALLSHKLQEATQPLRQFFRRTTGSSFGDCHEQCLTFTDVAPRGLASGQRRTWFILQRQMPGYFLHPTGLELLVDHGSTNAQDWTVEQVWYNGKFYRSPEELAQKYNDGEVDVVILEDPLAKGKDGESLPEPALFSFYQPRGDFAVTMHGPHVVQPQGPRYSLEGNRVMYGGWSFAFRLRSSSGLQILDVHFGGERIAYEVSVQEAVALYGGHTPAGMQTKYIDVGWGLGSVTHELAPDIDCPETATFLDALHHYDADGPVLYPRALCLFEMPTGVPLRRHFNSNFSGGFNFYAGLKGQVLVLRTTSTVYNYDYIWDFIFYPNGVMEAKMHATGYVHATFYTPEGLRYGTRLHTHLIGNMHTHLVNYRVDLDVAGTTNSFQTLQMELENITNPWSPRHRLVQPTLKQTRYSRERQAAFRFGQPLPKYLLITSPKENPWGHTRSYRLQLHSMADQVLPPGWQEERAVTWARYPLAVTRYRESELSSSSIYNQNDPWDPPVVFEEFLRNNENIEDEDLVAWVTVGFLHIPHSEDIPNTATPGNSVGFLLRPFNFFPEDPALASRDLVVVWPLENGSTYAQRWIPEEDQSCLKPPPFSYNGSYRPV
# Description: as §2, §1
# BAO's = conditions: background statement, cited from earlier work
# [7] = target: Pure BAO obtained from swine plasma; test: Inhibition of benzylaminoxidase (BAO), isotopic procedure with 14C-benzylamine; format: biochemical; conditions: for IC50: 30 minutes pre-incubation, 14C-benzylamine 1,7 mM (saturating), mean ± s.e.; for Activity as inhibitors of BAO (in words): compounds already known in the literature, prepared again
# Description: The quantitative determination of benzylaminoxidases (BAO's) is carried out by the isotopic procedure disclosed by F. Buffoni and G. Ignesti (Biochem. J.; 145, 369 (1975)) employing ^14 C-benzylamine as the substrate at the final concentration of 1,7 mM.
# as §1, §3, §4
# DAO from swine kidney [8] = target: T1, DAO from swine kidney; test: Inhibition of diaminoxidase (DAO), isotopic method with 14C-putrescine; format: biochemical; conditions: 30 minutes pre-incubation; 14C-putrescine 1 mM; mean ± s.e.
# Description: The quantitative determination of the diaminoxidases (DAO's) is performed by the isotopic method disclosed by J. Kusche, H. Richter, R. Hesterberg, J. Schmidt, W. Lorenz, (Agents and Actions, 3, 148-156 (1973)) employing ^14 C-putrescine as the substrate at the final concentration of 1 mM.
# as §1, §3, §4
# [9] = target: T2, purified LAO from swine aorta (Sus scrofa, UniProt P45845); test: Inhibition of lysyloxidase (LAO), isotopic procedure with 3H-elastine; format: biochemical; conditions: 30 minutes pre-incubation; 3H-elastine 0.150 mg/ml
# T2 construct: purified LAO from swine aorta; from tissue; host or cells: swine aorta, purified by the procedure of Buffoni and Raimondi (1981)
# T2 sequence (P45845 1-249): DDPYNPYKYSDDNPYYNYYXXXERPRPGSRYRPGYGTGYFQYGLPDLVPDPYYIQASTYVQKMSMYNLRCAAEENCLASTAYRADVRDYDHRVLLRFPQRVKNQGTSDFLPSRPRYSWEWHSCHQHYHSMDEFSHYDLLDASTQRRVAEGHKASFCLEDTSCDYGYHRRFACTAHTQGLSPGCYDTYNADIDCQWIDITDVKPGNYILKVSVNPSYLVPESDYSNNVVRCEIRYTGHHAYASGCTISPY
# Description: The quantitative determination of lysyloxidase (LAO) is carried out by the isotopic procedure of […]. Biochem., 77, 141 (1977)) employing as the substrate ^3 […] prepared as disclosed by […], and G. R. Martin (Proc. Natl. Acad. Sci. USA 61, 708 (1968)) and isolated as disclosed by […]. Smith (Biochemistry, 8, 2940 (1969)). […] Pure BAO obtained from swine plasma by the procedure disclosed by F. Buffoni and H. Blaschko (Proc. Roy. Soc. B 161, 153 (1964)); DAO from swine kidney, as obtained and purified by the Sigma (St. Louis, Md., USA, 0.25 U/mg); purified LAO from swine aorta obtained by the procedure disclosed by F. Buffoni and L. Raimondi (Agents and Actions, 11, 38 (1981)). Rat liver mitochondria obtained by the procedure disclosed by G. W. Schneider and […]. Biol. Chem., 183, 123 (1950)) were employed as the source of MAO. IC50 (M)=The molar concentration of the inhibitor that inhibits 50% of the enzyme activity at a saturating concentration of the substrate. Said concentration is calculated from curves obtained by pre-incubation of the compound for 30 minutes (at 6 different concentrations) with the enzyme before adding the substrate and determining the enzymic rate. The repetition of the experiments allows to obtain the average values of the IC50 (M) as well as the relative standard errors.
Compound,BAO: inhibition type [1],BAO: reversibility of the inhibition [2],MAO: compound as the substrate [3],IC50 [4] [µM],BAO: compound as the substrate [5],DAO: compound as the substrate (DAO from swine kidney [6]),IC50 (BAO's; read-out: I50 on BAO's) [µM],Kind of inhibition of BAO's (BAO's; high concentrations),IC50 [7] [µM],IC50 (DAO from swine kidney [8]) [µM],Activity as inhibitors of BAO (in words) [7],IC50 [9] [µM]
"CCc1cccc(CC)c1CN.Cl [Example 11, 2,6-diethylbenzylamine hydrochloride]",nc,r,s,> 1000,ns,s,,,,,,
N#CCCN [beta-aminopropionitrile],,,,,,,> 10000,irreversibly,,,,
"Cl.NCc1c(OCCO)cccc1OCCO [Example 13, 2,6-bis(hydroxyethoxy)benzylamine hydrochloride]",m,pr,ns,> 1000,ns,s,,,2.6,,,
"Cl.NCc1ccccc1O [Example 5, 2-hydroxybenzylamine hydrochloride]",,,ns,> 1000,s,s,,,1000,1000,"active indeed, though at a low degree",
"CC(C)Oc1cccc(OC(C)C)c1CN.Cl [Example 3, 2,6-diisopropoxybenzylamine hydrochloride]",,,s weak,> 1000,s weak,s weak,,,> 1000,,,
"CCCOc1cccc(OCCC)c1CN.Cl [Example 2, 2,6-di(n-propoxy)benzylamine hydrochloride]",m,pr,s,> 1000,ns,s weak,,,,,,
"CCOc1cccc(OCC)c1CN.Cl [Example 1, 2,6-diethoxybenzylamine hydrochloride]",m,pr,ns,6400 ± 0.5,ns,s,,,0.18,12500 ± 1,,
"NCc1c(O)cccc1O [Example 8, 2,6-dihydroxybenzylamine hydrochloride]",,,,> 1000,,,,,1000,,,
"Cl.NCc1ccccc1CO [Example 6, 2-hydroxymethylbenzylamine hydrochloride]",,,ns,> 1000,s,s,,,1000,,"active indeed, though at a low degree",
"COc1cccc(OC)c1CN.Cl [Example 7, 2,6-di-methoxybenzylamine hydrochloride]",m,r,s weak,190,ns,s,,,120,5600 ± 0.3,"active indeed, though at a low degree",
"CCCc1cccc(CCC)c1CN.Cl [Example 12, 2,6-di-n-propylbenzylamine hydrochloride]",nc,r,s,1000,ns,s weak,,,,1000,,1000
"CCCCOc1cccc(OCCCC)c1CN.Cl [Example 4, 2,6-di(n-butoxy)benzylamine hydrochloride]",nc,pr,ns,> 1000,ns,s,,,0.14,,,
"COCc1cccc(COC)c1CN.Cl [Example 10, 2,6-bis(methoxymethyl)benzylamine hydrochloride]",m,pr,ns,> 1000,ns,s,,,,,,
"COCOc1cccc(OCOC)c1CN.Cl [Example 9, 2,6-bis(methoxymethoxy)benzylamine hydrochloride]",m,r,ns,22000 ± 60,s,s,,,0.95,> 10000,,> 1000
